Assay results as given in PMC7961214 (Advanced Pharmaceutical Bulletin, 2020).
Like-named read-outs stand apart in the source and are kept apart here.

Assays:
[1] = Particle size and distribution (Delsa Nanoparticle Size Analyzer); format: physicochemical
Source text: The examination of particle size and distribution of particles from nanoparticles was done using the Delsa™ Nanoparticle Size Analyzer (Beckman Coulter, Brea, USA).

[2] = 340 mg/kg given orally ref Timothy et al; cited from earlier work
[3] = cited from earlier work
[4] = cited from earlier work; remark: listed apart in the source
[5] = In vivo pharmacokinetic study, curcumin plasma concentration by UPLC-MS/MS; design: species or system female Wistar rats; details: rats, single oral dose 100 mg/kg BW, mean ± SE (n = 5)
Method: The pharmacokinetic evaluation was carried out after obtaining approval from the Ethics Committee of the Faculty of Medicine Universitas Indonesia (approval number: 1188/ UN.2 F1/ETIK/2018). A pharmacokinetic study was carried out in female Wistar rats to determine the pharmacokinetic profile of curcumin particles and nanoparticles. Rats weighing 150–200 g were obtained and maintained at the Biomedical Research Center and Basic Health Technology Laboratory, Balitbangkes, Republic of Indonesia, Ministry of Health. The rats were placed in a room with constant temperature and humidity, adequate lighting, pellet food, and water ad libitum.
For each analysis, blood samples were pooled from six rats. […] Blood samples were taken from the rats tail vein using EDTA tubes. Blood samples were centrifuged at 3000 rpm for 15 minutes to obtain plasma, then stored at -80°C until analysis.
The LC-MS/MS system used was UPLC Waters and tandem mass spectrometry with a positive electrospray ionization source. Separation of analyte in the sample was carried using a liquid chromatography system with Acquity UPLC® BEH C18 column and mobile phase gradient in the form of 0.1% and acetonitrile formic acid with a ratio of 72:28 with analyte rate of 0.3 mL/min and injection volume of 3 µL. […] The calibration curve of a standard solution was made with the final level of the analytes at 1, 2.5, 5, 10, 25, and 50 ng/mL.[24]
The pharmacokinetic profiles were represented as mean and standard error (SE) from each group and were estimated through non-compartmental analysis. […] The area under the curve (AUC) from the beginning to the endpoint ( AUC^0→3 ) was calculated using the trapezoidal method. AUC^0→∞ is the amount of the AUC per time interval from 0 to the time of infinity, calculated by AUC^0→3 […]; Cpn is the plasma concentration at the last sampling time. […] The t1/2 was counted using the equation t1/2 = ln 2/Ke, and the CL was calculated by dividing the dose by AUC^0→∞ .[25]

## COc1cc(/C=C/C(=O)CC(=O)/C=C/c2ccc(O)c(OC)c2)ccc1O [Curcumin particles, Curcumin]
[1]
  mean particle size: 16103.4 nm
[2]
  Tmax: 30 min
[3]
  bioavailability: approximately 1%
[4]
  partition coefficient: 2.3–2.6
[5]; female, Wistar, rat
  Cmax: 1.51 ± 0.401 ng/mL
  Tmax: 44 min
[5]; female, Wistar, rat, read-out: AUC0-3
  AUC(0-t): 1.5 ± 0.401 ng·h/mL
[5]; female, Wistar, rat, read-out: AUC0-~
  AUC: 1.71 ± 0.535 ng·h/mL
[5]; female, Wistar, rat, read-out: Ke (converted)
  k el: 0.000327 s⁻¹
[5]; female, Wistar, rat, read-out: t1/2 elimination (converted)
  half-life: 51.5 ± 12.8 min
[5]; residual method
  Ka: 1.958 ± 0.468 h⁻¹
